# Assay results from patent US8288441B2, “Compositions comprising a physiological coolant” (Givaudan Nederland Services B.V., priority 2007, dated 2012).
# Tested on: forearm skin
# Test: Perception of cooling after applying aqueous ethanol solutions to the forearms of volunteers
# Assay type: in vivo, human
# Text: A simple aqueous ethanol solution (50:50) containing 1% by weight of lactoyl ethanolamide was applied to one forearm. The aqueous ethanol solution alone (control) was then applied to the other forearm at a similar dosage, and the perception of cooling from either arm noted. This was repeated on 10 volunteers in total.
# A simple aqueous ethanol solution (50:50) containing 0.2% by weight of L-menthol and 1% by weight of lactoyl ethanolamide was applied to one forearm at a concentration of 2 drops per 10 square centimetres of skin. The aqueous ethanol solution containing just 0.2% by weight L-menthol was then applied to the other forearm at the same dose, and the perception of cooling from either arm noted. This was repeated on 10 volunteers.
# A simple aqueous ethanol solution (50:50) containing 0.2% by weight of L-menthol and 0.5% by weight of lactoyl ethanolamide was applied to one forearm at a concentration of 2 drops per 10 square centimetres of skin. The aqueous ethanol solution containing 0.2% by weight L-menthol was then applied to the other forearm at the same dose, and the perception of cooling from either arm noted over 4 hours at 30 minute intervals. This was repeated on 12 volunteers.
# A simple aqueous ethanol solution (50:50) containing 1% by weight of menthyl lactate and 1% by weight of lactoyl ethanolamide was applied to one forearm at a concentration of 2 drops per 10 square centimetres of skin. The aqueous ethanol solution containing 1% by weight menthyl lactate was then applied to the other forearm at the same dose, and the perception of cooling from either arm noted over 4 hours at 30 minute intervals. This was repeated on 12 volunteers.
# A simple aqueous ethanol solution (50:50) containing 1.0% by weight of menthone glyceryl ketal and 0.5% by weight of lactoyl ethanolamide was applied to one forearm at a concentration of 2 drops per 10 square centimetres of skin. The aqueous ethanol solution containing 1% by weight menthone glyceryl ketal was then applied to the other forearm at the same dose, and the perception of cooling from either arm noted over 4 hours at 1 hour intervals. This was repeated on 10 volunteers.
# A simple aqueous ethanol solution (50:50) containing 0.75% by weight of menthyl glyceryl ether and 0.5% by weight of lactoyl ethanolamide was applied to one forearm at a concentration of 2 drops per 10 square centimetres of skin. An aqueous ethanol solution containing 1% by weight menthyl glyceryl ether was then applied to the other forearm at the same dose, and the perception of cooling from either arm noted over a 4 hour period. This was repeated on 12 volunteers.
# A simple aqueous ethanol solution (50:50) containing 1% by weight of menthyl pyrrolidone carboxylate and 0.5% by weight of lactoyl ethanolamide was applied to one forearm at a concentration of 2 drops per 10 square centimetres of skin. An aqueous ethanol solution containing 1% by weight menthyl pyrrolidone carboxylate was then applied to the other forearm at the same dose and the perception of cooling from either arm noted over a 6 hour period. This was repeated on 33 volunteers.
# [1] = Example 7, 1% menthyl pyrrolidone carboxylate + 0.5% lactoyl ethanolamide vs 1% menthyl pyrrolidone carboxylate alone, 6 hour period, 33 volunteers
compound,measurement,setting,value
CC1CCC(C(C)C)C(OC(=O)C(C)O)C1 (stereo not shown) [menthyl lactate],period of time over which cooling was felt,"Example 4, 1% menthyl lactate with or without 1% lactoyl ethanolamide, noted over 4 hours at 30 minute intervals, 12 volunteers",about 2 hours
"CC(O)C(=O)NCCO (stereo not shown) [lactoyl ethanolamide, N-lactoyl ethanolamide]",cooling perception versus placebo solution,"Example 1, 1% by weight lactoyl ethanolamide in aqueous ethanol (50:50) vs aqueous ethanol alone, other forearm, 10 volunteers",no difference in cooling perception
same,cooling perception versus coolant alone,"Example 2, 0.2% L-menthol + 1% lactoyl ethanolamide vs 0.2% L-menthol alone, 2 drops per 10 square centimetres, 10 volunteers",higher cooling perception
same,level of cooling versus coolant alone,[1],higher level of cooling
same,time for which the improved cooling perception was sustained,[1],at least 6 hours
CC(C)[C@@H]1CC[C@@H](C)C[C@H]1O [L-menthol],period of time over which cooling was felt,"Example 3, 0.2% L-menthol with or without 0.5% lactoyl ethanolamide, noted over 4 hours at 30 minute intervals, 12 volunteers",about 2 hours
CC1CCC(C(C)C)C2(C1)OCC(CO)O2 (stereo not shown) [menthone glyceryl ketal],period of time over which cooling was felt,"Example 5, 1% menthone glyceryl ketal with or without 0.5% lactoyl ethanolamide, noted over 4 hours at 1 hour intervals, 10 volunteers",about 3 hours
